Test results from BigSolDB 2.1.

CC1(C)NC(=O)NC1=O
solubility (mole fraction)
Settings	283.15 K	288.15 K	293.15 K	298.15 K	303.15 K	308.15 K	313.15 K	318.15 K	323.15 K
in acetonitrile	0.0123	0.0144	0.017	0.0196	0.0227	0.026	0.0294	0.0345	0.039
in ethanol	0.0412	0.0465	0.0526	0.0592	0.0672	0.0757	0.0846	0.0961	0.108
in ethyl acetate	0.0118	0.0133	0.0154	0.0175	0.0191	0.0213	0.0236	0.026	0.0289
in isobutanol	0.0242	0.0284	0.0328	0.038	0.0439	0.0509	0.0577	0.0672	0.0757
in isopropanol	0.0366	0.042	0.0481	0.0554	0.063	0.0714	0.0803	0.0914	0.102
in methanol	0.0647	0.0719	0.0806	0.0896	0.0993	0.111	0.122	0.135	0.15
in n-butanol	0.026	0.0296	0.0338	0.0389	0.0447	0.0509	0.0574	0.0661	0.0737
in n-pentanol	0.0236	0.0267	0.0305	0.0348	0.0398	0.0453	0.0514	0.0583	0.0641
in n-propanol	0.0326	0.0373	0.0424	0.0476	0.0543	0.0616	0.0687	0.0788	0.0881
in n-propyl acetate	0.00923	0.0105	0.0118	0.0138	0.0155	0.0172	0.0193	0.0215	0.0234
in sec-butanol	0.0384	0.0449	0.0505	0.058	0.0655	0.074	0.083	0.093	0.105
in water	0.0163	0.0186	0.0213	0.0242	0.0279	0.0326	0.038	0.0458	0.0532
